Results: US20170027172A1, “USE OF SUBSTITUTE OXO TETRAHYDROQUINOLINE SULFONAMIDES OR SALTS THEREOF FOR RAISING STRESS TOLERANCE OF PLANTS” (BAYER CROPSCIENCE AKTIENGESELLSCHAFT, priority 2014, published 2017)

Molecular target: T1, phosphatase ABI1 via the co-regulator RCAR11/PYR1 (Arabidopsis thaliana, UniProt O49686+P49597)
T1 sequence (O49686 1-191): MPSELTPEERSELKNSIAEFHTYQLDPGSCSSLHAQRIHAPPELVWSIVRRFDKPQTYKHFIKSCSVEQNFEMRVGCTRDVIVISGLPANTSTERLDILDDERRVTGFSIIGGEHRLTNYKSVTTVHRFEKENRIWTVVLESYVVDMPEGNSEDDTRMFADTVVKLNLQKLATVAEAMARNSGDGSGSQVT
T1 sequence (P49597 1-434): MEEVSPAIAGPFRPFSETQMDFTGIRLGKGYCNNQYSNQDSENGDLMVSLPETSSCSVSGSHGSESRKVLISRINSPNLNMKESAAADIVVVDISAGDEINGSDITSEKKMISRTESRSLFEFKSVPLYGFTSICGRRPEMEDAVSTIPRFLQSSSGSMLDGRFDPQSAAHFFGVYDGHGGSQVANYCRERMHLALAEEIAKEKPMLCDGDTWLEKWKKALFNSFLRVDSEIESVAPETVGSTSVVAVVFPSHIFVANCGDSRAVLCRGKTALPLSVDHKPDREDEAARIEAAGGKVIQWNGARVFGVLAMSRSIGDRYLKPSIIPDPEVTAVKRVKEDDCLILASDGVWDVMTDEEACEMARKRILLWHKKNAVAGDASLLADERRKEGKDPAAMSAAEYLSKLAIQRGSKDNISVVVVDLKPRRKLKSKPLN
Assay: In vitro inhibition of the phosphatase ABI1 via the co-regulator RCAR11/PYR1, MUP dephosphorylation
Format: biochemical
Set-up: dose or concentration left out as unconfirmed
Conditions: in a solution of DMSO and water; fluorescence at 460 nm
Description: Effects of the phytohormone abscisic acid (ABA) on the behavior of plants under abiotic stress and the mechanism of action of ABA are described in the literature (cf. Abrams et al., WO97/23441, Park et al. Science, 2009, 324, 1068; Grill et al. Science, 2009, 324, 1064; Tanokura et al. Biophysics, 2011, 7, 123; Schroeder et al. Plant J. 2010, 61, 290). Therefore, it is possible with the aid of a suitable in vitro test system to derive a correlation between the action of ABA and the stress response of a plant under abiotic stress. In the event of water deficiency (drought stress), plants form the phytohormone abscisic acid (ABA). This binds, along with a co-regulator (Regulatory Component of ABA-Receptor=RCAR according to Grill et al. Science, 2009, 324, 1064 or PYR/PYL according to Cutler et al. Science, 2009, 324, 1068), to a phosphatase (e.g. ABI1, a type 2C protein phosphatase, also abbreviated to PP2C) and inhibits its activity. As a result, a “downstream” kinase (e.g. SnRK2) is no longer dephosphorylated. This kinase, which is thus active, via phosphorylation of transcription factors (e.g. AREB/ABF, cf. Yoshida et al., 2010, 61, 672), switches on a genetic protection program to increase drought stress tolerance. The assay described hereinafter utilizes the inhibition of the phosphatase ABI1 via the co-regulator RCAR11/PYR1 aus Arabidopsis thaliana. For the determination of activity, the dephosphorylation of 4-methylumbelliferyl phosphate (MUP) was measured at 460 nm. The in vitro assay was conducted in Greiner 384-well PS microplates F-well, using two controls: a) 0.5% dimethyl sulfoxide (DMSO) and b) 5 μM abscisic acid (ABA). The assay described here was generally conducted with substance concentrations of the appropriate chemical test substances in a concentration range of 0.1 μM to 100 μM in a solution of DMSO and water. The substance solution thus obtained, if necessary, was stirred with esterase from porcine liver (EC 3.1.1.1) at room temperature for 3 h and centrifuged at 4000 rpm for 30 min. A total volume of 45 μl was introduced into each cavity of the microplate, having the following composition: • 1) 5 μl of substance solution, i.e. a) DMSO 5% or b) abscisic acid solution or c) the corresponding example compound of the general formula (I) dissolved in 5% DMSO. • 2) 20 μl of enzyme buffer mix, composed of a) 40% by vol. of enzyme buffer (10 mL contain equal proportions by volume of 500 mM Tris-HCl pH 8, 500 mM NaCl, 3.33 mM MnCl2, 40 mM dithiothreitol (DTT)), b) 4% by vol. of ABI1 dilution (protein stock solution was diluted so as to give, after addition, a final concentration in the assay of 0.15 μg ABI1/well), c) 4% by vol. of RCAR11 dilution (enzyme stock was diluted so as to give, on addition of the dilution to the enzyme buffer mix, a final concentration in the assay of 0.30 μg enzyme/well), d) 5% by vol. of Tween20 (1%), e) 47% by vol. H2O bi-dist. • 3) 20 μl of substrate mix, composed of a) 10% by vol. of 500 mM Tris-HCl pH8, b) 10% by vol. of 500 mM NaCl, c) 10% by vol. of 3.33 mM MnCl2, d) 5% by vol. of 25 mM MUP, 5% by vol. of Tween20 (1%), 60% by vol. of H2O bi-dist.
Enzyme buffer mix and substrate mix were made up 5 minutes prior to the addition and warmed to a temperature of 35° C. On completion of pipetting of all the solutions and on completion of mixing, the plate was incubated at 35° C. for 20 minutes. Finally, a relative fluorescence measurement was made at 35° C. with a BMG Labtech “POLARstar Optima” microplate reader using a 340/10 nm excitation filter and a 460 nm emission filter. The efficacy of the compounds of the general formula (I) is reported in the table which follows using abscisic acid […] as comparative substance (No. 37) according to the following classification: ++++ (inhibition≧90%), +++ (90%>inhibition≧70%), ++ (70%>inhibition≧50%), + (50%>inhibition≧30%). […]

| SMILES | ABI1 inhibition |
| --- | --- |
| O=C1CCc2cc(NS(=O)(=O)Cc3cccc(Cl)c3)ccc2N1CC(F)(F)F [A2-166] | +++ (90%>inhibition≧70%) |
| O=C1CCc2cc(NS(=O)(=O)Cc3ccc(Cl)cc3)ccc2N1CC(F)F [A1-165] | ++++ (inhibition≧90%) |
| Cc1ccc(CS(=O)(=O)Nc2ccc3c(c2)CCC(=O)N3CCC(F)(F)F)cc1 [A7-152] | ++++ (inhibition≧90%) |
| Cc1ccc(CS(=O)(=O)Nc2ccc3c(c2)CCC(=O)N3CC(F)(F)C(F)(F)F)cc1 [A10-152] | ++++ (inhibition≧90%) |
| O=C1CCc2cc(NS(=O)(=O)Cc3ccc(Cl)cc3)ccc2N1CCC(F)(F)F [A7-165] | ++++ (inhibition≧90%) |
| Cc1ccc(CS(=O)(=O)Nc2ccc3c(c2)CCC(=O)N3CC(F)(F)F)cc1 [A2-152] | ++++ (inhibition≧90%) |
| O=C1CCc2cc(NS(=O)(=O)Cc3ccc(C(F)(F)F)cc3)ccc2N1CC(F)F [A1-178] | ++++ (inhibition≧90%) |
| O=C1CCc2cc(NS(=O)(=O)Cc3ccc(Cl)cc3)ccc2N1CC(F)(F)F [A2-165] | ++++ (inhibition≧90%) |
| N#CCN1C(=O)CCc2cc(NS(=O)(=O)Cc3ccc(C(F)(F)F)cc3)ccc21 [A16-178] | ++ (70%>inhibition≧50%) |
| Cc1ccc(CS(=O)(=O)Nc2ccc3c(c2)CCC(=O)N3CC(F)F)cc1 [A1-152] | ++++ (inhibition≧90%) |
| O=C1CCc2cc(NS(=O)(=O)Cc3cccc(C(F)(F)F)c3)ccc2N1CC(F)(F)F [A2-179] | +++ (90%>inhibition≧70%) |
| Cc1cccc(CS(=O)(=O)Nc2ccc3c(c2)CCC(=O)N3CC(F)(F)F)c1 [A2-153] | +++ (90%>inhibition≧70%) |
| N#Cc1ccc(CS(=O)(=O)Nc2ccc3c(c2)CCC(=O)N3CCC(F)(F)F)cc1 [A7-181] | ++++ (inhibition≧90%) |
| O=C1CCc2cc(NS(=O)(=O)Cc3cccc(Br)c3)ccc2N1CC(F)(F)F [A2-173] | +++ (90%>inhibition≧70%) |
| N#Cc1cccc(CS(=O)(=O)Nc2ccc3c(c2)CCC(=O)N3CCC(F)(F)F)c1 [A7-182] | ++ (70%>inhibition≧50%) |
| O=C1CCc2cc(NS(=O)(=O)Cc3cccc(Br)c3)ccc2N1CC(F)F [A1-173] | ++ (70%>inhibition≧50%) |
| O=C1CCc2cc(NS(=O)(=O)Cc3ccccc3)ccc2N1CC(F)(F)F [A2-151] | ++++ (inhibition≧90%) |

More lines, now with the values ahead:

| ABI1 inhibition | SMILES |
| --- | --- |
| ++ (70%>inhibition≧50%) | COC(=O)CN1C(=O)CCc2cc(NS(=O)(=O)Cc3cccc(Cl)c3)ccc21 [A50-166] |
| ++ (70%>inhibition≧50%) | O=C1CCc2cc(NS(=O)(=O)Cc3ccc(C(F)(F)F)cc3)ccc2N1CC1CC1(Cl)Cl (stereo not drawn) [A32-178, N-[1-(2′,2′-Dichlorocyclopropylmethyl)-2-oxo-1,2,3,4-tetrahydroquinolin-6-yl]-1-(4-trifluoromethylphenyl)methanesulfonamide] |
| ++++ (inhibition≧90%) | COCCN1C(=O)CCc2cc(NS(=O)(=O)Cc3ccc(C(F)(F)F)cc3)ccc21 [A38-178] |
| +++ (90%>inhibition≧70%) | Cc1cccc(CS(=O)(=O)Nc2ccc3c(c2)CCC(=O)N3CC2CC2)c1 [A19-153, N-[1-(Cyclopropylmethyl)-2-oxo-1,2,3,4-tetrahydroquinolin-6-yl]-1-(3-methylphenyl)methanesulfonamide] |
| ++ (70%>inhibition≧50%) | COC(=O)CN1C(=O)CCc2cc(NS(=O)(=O)CCc3ccc(Cl)cc3)ccc21 [A50-291] |
| ++++ (inhibition≧90%) | N#CCCCN1C(=O)CCc2cc(NS(=O)(=O)Cc3ccc(C#N)cc3)ccc21 [A48-181] |
| +++ (90%>inhibition≧70%) | N#Cc1ccc(CS(=O)(=O)Nc2ccc3c(c2)CCC(=O)N3CC2CC2(Cl)Cl)cc1 (stereo not drawn) [A32-181] |
| +++ (90%>inhibition≧70%) | COC(=O)CCN1C(=O)CCc2cc(NS(=O)(=O)Cc3ccc([N+](=O)[O-])cc3)ccc21 [A51-175] |
| ++++ (inhibition≧90%) | CC(C)(C)c1ccc(CS(=O)(=O)Nc2ccc3c(c2)CCC(=O)N3CC2CC2)cc1 [A19-332] |
| +++ (90%>inhibition≧70%) | COC(=O)CN1C(=O)CCc2cc(NS(=O)(=O)Cc3ccc(C#N)cc3)ccc21 [A50-181] |
| ++ (70%>inhibition≧50%) | COC(=O)CN1C(=O)CCc2cc(NS(=O)(=O)Cc3ccccc3)ccc21 [A50-151] |
| ++ (70%>inhibition≧50%) | COC(=O)CCN1C(=O)CCc2cc(NS(=O)(=O)Cc3cccc(C(F)(F)F)c3)ccc21 [A51-179] |
| ++++ (inhibition≧90%) | CCc1ccc(CS(=O)(=O)Nc2ccc3c(c2)CCC(=O)N3CC2CCC2)cc1 [A21-325] |
| +++ (90%>inhibition≧70%) | N#Cc1ccc(CS(=O)(=O)Nc2ccc3c(c2)CCC(=O)N3CC2CCCC2)cc1 [A22-181] |
| +++ (90%>inhibition≧70%) | COC(=O)CCN1C(=O)CCc2cc(NS(=O)(=O)Cc3ccccc3)ccc21 [A51-151] |
| ++++ (inhibition≧90%) | O=C1CCc2cc(NS(=O)(=O)Cc3ccc(F)cc3)ccc2N1CC1CCC1 [A21-158] |
| ++++ (inhibition≧90%) | CCOCCN1C(=O)CCc2cc(NS(=O)(=O)Cc3ccc(C)cc3)ccc21 [A39-152] |
| ++ (70%>inhibition≧50%) | COC(=O)CCN1C(=O)CCc2cc(NS(=O)(=O)Cc3cccc(Br)c3)ccc21 [A51-173] |
| ++++ (inhibition≧90%) | COC(=O)CCN1C(=O)CCc2cc(NS(=O)(=O)Cc3ccccc3Cl)ccc21 [A51-168] |
| + (50%>inhibition≧30%) | CCOCCN1C(=O)CCc2cc(NS(=O)(=O)Cc3ccc(F)cc3)ccc21 [A39-158] |
| +++ (90%>inhibition≧70%) | CCc1ccc(S(=O)(=O)Nc2ccc3c(c2)CCC(=O)N3CC2CC2)cc1 [A19-601] |
| ++ (70%>inhibition≧50%) | O=C1CCc2c(cc(F)c(NS(=O)(=O)Cc3ccc(F)cc3)c2F)N1CC1CC1 [A29-158] |
| +++ (90%>inhibition≧70%) | COCCN1C(=O)CCc2cc(NS(=O)(=O)Cc3cccc(Cl)c3)ccc21 [A38-166] |
| ++ (70%>inhibition≧50%) | COC(=O)CN1C(=O)CCc2cc(NS(=O)(=O)Cc3cccc(C)c3)ccc21 [A50-153] |
| +++ (90%>inhibition≧70%) | Cc1ccc(CS(=O)(=O)Nc2ccc3c(c2)CCC(=O)N3CC2CCCC2)cc1 [A22-152] |
